Laboratory results taken from ChEMBL document CHEMBL1201862, “PubChem BioAssay data set” (2004).
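Where inhibition never reached the appropriate level, the endpoint shown equals the highest concentration tested. Otherwise, values were interpolated linearly from a five-concentration, 48-hour dose response in 96-well plates. At the GI50, growth is halved.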 The source made the active and inactive calls. Rule as the data show it: active = GI50 up to about 1.1 µM and inactive = higher.

Tests used:
Experiment in all cases: DTP human tumour cell line panel, 48 h
[1] = tested on: UO-31
[2] = tested on: MDA-N
[3] = tested on: NCI-H226
[4] = tested on: SN12C
[5] = tested on: DU-145
[6] = tested on: CCRF-CEM
[7] = tested on: UACC-257
[8] = tested on: MCF7
[9] = tested on: NCI-H522
[10] = tested on: OVCAR-5
[11] = tested on: Malme-3M
[12] = tested on: MOLT-4
[13] = tested on: Hs-578T
[14] = tested on: 786-0
[15] = tested on: SF-295
[16] = tested on: SF-539
[17] = tested on: HCT-116
[18] = tested on: OVCAR-4
[19] = tested on: LOX IMVI
[20] = tested on: RPMI-8226

Measured: GI50

CC1(C)C2CCC1(C)C(NC(=O)CCN1CCOCC1)C2 (stereo not given)
inactive: [1] > 100 µM | [2] > 100 µM | [3] > 100 µM | [4] > 100 µM | [5] > 100 µM | [6] > 100 µM | [7] > 100 µM | [8] > 100 µM | [9] > 100 µM | [10] > 100 µM | [11] > 100 µM | [12] > 100 µM | [13] > 100 µM | [14] > 100 µM | [15] > 100 µM | [16] > 100 µM | [17] > 100 µM | [18] > 100 µM

c1csc(-c2ccc(-c3ccc(-c4cccs4)s3)s2)c1
inactive: [1] > 100 µM | [2] > 100 µM | [3] > 100 µM | [4] > 100 µM | [5] > 100 µM | [7] > 100 µM | [19] > 100 µM | [8] > 100 µM | [9] > 100 µM | [10] > 100 µM | [11] > 100 µM | [12] > 100 µM | [13] > 100 µM | [14] > 100 µM | [15] > 100 µM | [16] > 100 µM | [17] > 100 µM | [18] > 100 µM | [20] > 100 µM

Cc1ccc(/C=N/n2c(-c3ccc(C)cc3)n[nH]c2=O)cc1
inactive: [1] 75 µM | [2] 80.7 µM | [3] > 100 µM | [4] 94.6 µM | [5] 91.6 µM | [6] 21.5 µM | [7] > 100 µM | [8] > 100 µM | [9] > 100 µM | [10] 84.9 µM | [11] 80.5 µM | [12] 92.7 µM | [13] > 100 µM | [14] 29.6 µM | [15] 48.8 µM | [16] 50.4 µM | [17] 54 µM | [18] 40 µM | [20] > 100 µM

O=c1oc2cccnc2n1CCCCN1CCN(c2ccccc2)CC1
inactive: [1] > 100 µM | [2] > 100 µM | [5] > 100 µM | [6] > 100 µM | [7] > 100 µM | [19] > 100 µM | [8] > 100 µM | [9] > 100 µM | [10] > 100 µM | [11] 89.1 µM | [12] > 100 µM | [13] > 100 µM | [14] > 100 µM | [15] > 100 µM | [16] > 100 µM | [17] > 100 µM | [18] > 100 µM | [20] > 100 µM

CCOC(=O)CCC(NC(=O)c1ccc(CNc2nc3ccccc3nc2C(=O)OCC)cc1)C(=O)OCC (stereo not given)
inactive: [1] 44.1 µM | [2] > 100 µM | [3] > 100 µM | [4] > 100 µM | [5] > 100 µM | [6] > 100 µM | [19] > 100 µM | [8] > 100 µM | [9] > 100 µM | [10] > 100 µM | [11] 77.3 µM | [12] > 100 µM | [13] > 100 µM | [14] > 100 µM | [15] > 100 µM | [17] > 100 µM | [20] > 100 µM

O=c1[nH]c(Nc2nc3ccccc3[nH]2)nc(O)c1-c1ccccc1
inactive: [1] > 100 µM | [2] > 100 µM | [3] > 100 µM | [4] > 100 µM | [5] > 100 µM | [6] > 100 µM | [7] > 100 µM | [19] > 100 µM | [8] > 100 µM | [9] > 100 µM | [10] > 100 µM | [11] > 100 µM | [13] 72.3 µM | [14] > 100 µM | [15] > 100 µM | [16] > 100 µM | [17] > 100 µM | [18] > 100 µM

Cc1ccc(-c2cc(N)n(-c3nc4c(c(=O)n(C)c(=O)n4C)n3C)n2)cc1
inactive: [1] > 100 µM | [2] > 100 µM | [3] 86.1 µM | [4] > 100 µM | [5] > 100 µM | [6] > 100 µM | [7] > 100 µM | [8] > 100 µM | [9] 86.5 µM | [10] > 100 µM | [11] 45.6 µM | [12] > 100 µM | [13] 60.1 µM | [14] 42.2 µM | [15] 62.7 µM | [16] 45.8 µM | [17] > 100 µM | [18] 42.5 µM | [20] > 100 µM

O=C(CC(C(=O)c1cccs1)c1ccsc1)c1cccs1 (stereo not given)
inactive: [1] 51.3 µM | [2] 25.8 µM | [3] > 100 µM | [4] > 100 µM | [5] > 100 µM | [6] 37.8 µM | [7] > 100 µM | [8] 52.2 µM | [9] 54.2 µM | [10] > 100 µM | [11] > 100 µM | [12] 46.7 µM | [13] > 100 µM | [14] > 100 µM | [15] 42 µM | [16] > 100 µM | [17] 29.9 µM | [18] 79.8 µM

Cc1nc2cc(C(F)(F)F)ccc2[nH]c1=O
inactive: [1] > 100 µM | [2] > 100 µM | [3] > 100 µM | [4] > 100 µM | [5] > 100 µM | [6] > 100 µM | [7] > 100 µM | [19] > 100 µM | [8] > 100 µM | [10] > 100 µM | [11] > 100 µM | [12] > 100 µM | [13] 21.9 µM | [14] > 100 µM | [15] > 100 µM | [16] > 100 µM | [17] > 100 µM | [18] > 100 µM | [20] > 100 µM

COc1ccc(CC(=O)N2CCC3(C)CC(=O)CC=C23)cc1OC (stereo not given)
inactive: [1] > 100 µM | [2] > 100 µM | [3] > 100 µM | [4] > 100 µM | [5] > 100 µM | [19] > 100 µM | [8] > 100 µM | [9] 33.6 µM | [10] > 100 µM | [11] > 100 µM | [12] > 100 µM | [13] > 100 µM | [14] > 100 µM | [15] > 100 µM | [16] > 100 µM | [17] > 100 µM | [18] > 100 µM | [20] > 100 µM

CCOC(=O)c1cn2c(n1)sc1cc(OC)ccc12
inactive: [1] 10.9 µM | [2] 2.6 µM | [3] 25.1 µM | [4] 7.41 µM | [5] 4.07 µM | [7] 80.9 µM | [19] 18.2 µM | [8] 5.13 µM | [9] 18 µM | [10] 14.7 µM | [11] 27.6 µM | [12] 4.61 µM | [13] 21 µM | [14] 6.21 µM | [15] 7.18 µM | [16] 2.95 µM | [17] 5.42 µM | [18] > 100 µM | [20] 4.08 µM

CN1CCN(C(=S)N(C(=O)c2ccco2)c2ccccc2)CC1
inactive: [1] > 100 µM | [2] > 100 µM | [3] > 100 µM | [4] > 100 µM | [5] > 100 µM | [6] > 100 µM | [7] > 100 µM | [19] > 100 µM | [8] > 100 µM | [9] > 100 µM | [10] > 100 µM | [11] > 100 µM | [12] > 100 µM | [13] > 100 µM | [14] > 100 µM | [15] > 100 µM | [18] > 100 µM | [20] > 100 µM

O=c1[nH]c(=O)n(COCCO)cc1-c1ccccc1
inactive: [1] > 100 µM | [2] > 100 µM | [4] > 100 µM | [5] > 100 µM | [6] > 100 µM | [7] > 100 µM | [19] > 100 µM | [8] > 100 µM | [9] > 100 µM | [10] > 100 µM | [11] > 100 µM | [12] > 100 µM | [13] > 100 µM | [14] > 100 µM | [15] > 100 µM | [17] > 100 µM | [18] > 100 µM | [20] > 100 µM

CC(C)[C@@H](C)[C@@]1(C)C[C@@H]1[C@@H](C)[C@H]1CC[C@@H]([C@@H]2CC=C3C[C@@H](O)CC[C@]3(C)C2=O)[C@]1(C)CCO
inactive: [1] 15.2 µM | [2] 13.3 µM | [3] 12.5 µM | [4] 12.9 µM | [5] 15.3 µM | [7] 14.3 µM | [19] 4.57 µM | [8] 10.9 µM | [9] 6.9 µM | [10] 11.6 µM | [11] 14 µM | [12] 4.17 µM | [13] 10.3 µM | [14] 5.53 µM | [15] 9.2 µM | [16] 12.6 µM | [17] 10.1 µM | [18] 12.1 µM | [20] 12.2 µM

C=[N+](CNC(=O)CNC(=O)C(Cc1ccc([N+](=O)[O-])cc1)NC(=O)OC(C)(C)C)C(=O)CNC(=O)C(Cc1ccc([N+](=O)[O-])cc1)NC(=O)OC(C)(C)C (stereo not given)
inactive: [1] > 100 µM | [2] > 10 µM | [3] 60.7 µM | [4] 47.9 µM | [5] > 100 µM | [19] 15.7 µM | [8] 40.8 µM | [9] 24.3 µM | [10] > 100 µM | [11] 44.6 µM | [12] 17 µM | [13] 26.1 µM | [14] 69.5 µM | [15] 46.6 µM | [16] 25.1 µM | [17] 36.2 µM | [18] > 100 µM | [20] 16.9 µM
